32 compounds from ChEMBL document CHEMBL1131194, “Covalent modification of cyclooxygenase-2 (COX-2) by 2-acetoxyphenyl alkyl sulfides, a new class of selective COX-2 inactivators” (J Med Chem, 1998) can be followed below.

Test [1] deals with T1, Prostaglandin G/H synthase 2 (Homo sapiens, UniProt P35354).
T1 sequence (P35354 whole entry): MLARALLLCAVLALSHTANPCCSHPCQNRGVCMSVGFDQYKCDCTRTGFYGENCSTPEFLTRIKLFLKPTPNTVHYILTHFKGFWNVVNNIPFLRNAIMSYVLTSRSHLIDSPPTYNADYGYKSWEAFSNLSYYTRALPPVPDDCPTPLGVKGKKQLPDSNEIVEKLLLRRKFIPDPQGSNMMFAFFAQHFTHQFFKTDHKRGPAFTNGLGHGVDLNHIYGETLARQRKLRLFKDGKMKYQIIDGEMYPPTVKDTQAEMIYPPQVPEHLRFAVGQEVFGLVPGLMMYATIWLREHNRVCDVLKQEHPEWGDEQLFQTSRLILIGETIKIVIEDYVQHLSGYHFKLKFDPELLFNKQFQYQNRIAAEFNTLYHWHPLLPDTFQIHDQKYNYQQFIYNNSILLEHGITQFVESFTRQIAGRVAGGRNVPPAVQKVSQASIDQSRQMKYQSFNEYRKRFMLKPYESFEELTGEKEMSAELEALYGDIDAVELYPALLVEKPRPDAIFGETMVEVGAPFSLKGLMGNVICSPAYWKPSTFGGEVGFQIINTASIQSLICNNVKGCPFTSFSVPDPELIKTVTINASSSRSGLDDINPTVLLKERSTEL
Kind of test: Inhibitory concentration in DMSO with purified human Prostaglandin G/H synthase 2 (COX-2).

The target of test [2] is T2, Prostaglandin G/H synthase 1 (Ovis aries, UniProt P05979).
T2 sequence (P05979 whole entry): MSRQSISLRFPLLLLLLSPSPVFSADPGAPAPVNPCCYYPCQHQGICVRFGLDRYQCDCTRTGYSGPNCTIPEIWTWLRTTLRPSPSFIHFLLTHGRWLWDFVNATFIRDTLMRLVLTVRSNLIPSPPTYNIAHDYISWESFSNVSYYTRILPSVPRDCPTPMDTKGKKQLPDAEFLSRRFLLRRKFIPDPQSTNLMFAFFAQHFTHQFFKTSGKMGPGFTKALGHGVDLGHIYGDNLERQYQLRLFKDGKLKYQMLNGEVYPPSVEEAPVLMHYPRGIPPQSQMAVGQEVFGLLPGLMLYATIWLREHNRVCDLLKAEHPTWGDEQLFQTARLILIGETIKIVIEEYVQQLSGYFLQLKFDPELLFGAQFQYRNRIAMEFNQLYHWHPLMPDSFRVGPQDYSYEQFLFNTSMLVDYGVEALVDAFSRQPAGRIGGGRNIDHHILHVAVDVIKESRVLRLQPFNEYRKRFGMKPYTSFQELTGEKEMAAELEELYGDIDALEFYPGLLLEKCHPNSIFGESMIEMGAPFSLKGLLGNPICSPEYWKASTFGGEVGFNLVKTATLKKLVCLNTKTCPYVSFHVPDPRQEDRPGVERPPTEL
Kind of test: Inhibitory concentration in DMSO with purified ovine Prostaglandin G/H synthase 1 (COX-1).

As a reminder, the IC50 is the concentration at which inhibition is half-maximal. `CCCCCCC[Se]c1ccccc1OC(C)=O`: the IC50 in test [1] and in test [2] was 12 µM in each case.
As to `CCCCCCCN(C)c1ccccc1OC(C)=O`, the IC50 in test [1] and in test [2] was greater than 40 µM each time.
In test [2], `CCCCSc1ccccc1OC(C)=O` came in with an IC50 of 40 µM.
Regarding `CCCCCCCCc1ccccc1OC(C)=O`, the IC50 in test [1] and in test [2] was greater than 40 µM in each case.
In test [2], `CCCC/C=C/CSc1ccccc1OC(C)=O` showed an IC50 of 22 µM.
With `CC(=O)Oc1ccccc1SCCCCC#N`, the IC50 in test [1] and in test [2] was greater than 50 µM each time.
Take `CCCCC#CCSc1ccccc1OC(=O)CC`: the IC50 in test [1] and in test [2] was greater than 40 µM throughout.
`CC(=O)Oc1ccccc1SCCc1ccccc1` registered an IC50 in test [2] greater than 150 µM.
Still for that read-out and setting: in the case of `CCCCC#CCSc1ccccc1OC(C)=O` it was 17 µM.
For `CCC(=O)Oc1ccccc1SC`, the IC50 in test [1] and in test [2] was greater than 1000 µM throughout.
In the case of `CC(=O)Oc1ccccc1SCCCCC(=O)O`, the IC50 in test [1] and in test [2] was greater than 50 µM each time.
With `CC(=O)Oc1ccccc1SCCCCCO`, the IC50 in test [1] and in test [2] was greater than 50 µM each time.
For the compound `CC(=O)Oc1ccccc1SCCCCCCBr`, the IC50 is 12 µM in test [1] and 25 µM in test [2].
Consider `CCCCCCC[S+]([O-])c1ccccc1OC(C)=O` (configuration not stated), for which the IC50 in test [1] and in test [2] was greater than 40 µM in each case.
With `CC(=O)Oc1ccccc1SCCCCCC(=O)O`, the IC50 in test [1] and in test [2] was 50 µM each time.
In the case of `CSc1ccccc1OC(C)=O`, the IC50 in test [2] was greater than 5000 µM.
On the same count and under the same terms, then `CC#CCSc1ccccc1OC(C)=O`, with 35 µM.
Turning to `CCCCCCCOc1ccccc1OC(C)=O`, the IC50 in test [1] and in test [2] was greater than 40 µM throughout.
With `CCCCC#CCOc1ccccc1OC(C)=O`, the 50% inhibitory concentration (IC50) in test [1] and in test [2] was greater than 40 µM each time.
As for `CC(=O)Oc1ccccc1SCc1ccccc1`, the IC50 in test [2] was greater than 400 µM.
For the compound `CCCOCCCSc1ccccc1OC(C)=O`, the IC50 in test [1] and in test [2] was greater than 50 µM throughout.
For `CC(=O)Oc1ccccc1SCCCCCBr`, the IC50 stood at 9.5 µM in test [1] and 34 µM in test [2].
On to `CC(=O)OCCCCCSc1ccccc1OC(C)=O`, for which the IC50 in test [1] and in test [2] was 50 µM throughout.
For the compound `CCCCCCCCCSc1ccccc1OC(C)=O`, the IC50 in test [1] and in test [2] was greater than 40 µM each time.
For `CC(=O)Oc1ccccc1SCCCCCCI`, the figures for the IC50 in test [1] and in test [2] were 10 µM and 70 µM, respectively.
As to `CCCCC#CC(C)Sc1ccccc1OC(C)=O` (configuration not stated), the IC50 came to 7 µM in test [1] and 15 µM in test [2].
Take `CC(=O)Oc1ccccc1SC1CCCCC1`: the IC50 in test [1] and in test [2] was greater than 40 µM throughout.
Consider `CCCCCCCS(=O)(=O)c1ccccc1OC(C)=O`, for which the IC50 in test [1] and in test [2] was greater than 40 µM in each case.
With `CC(=O)Oc1ccccc1SCCCc1ccccc1`, the IC50 in test [1] and in test [2] was greater than 1000 µM in each case.
Take `CC(=O)Oc1ccccc1SC1CCCCCC1`: the IC50 in test [1] and in test [2] was greater than 40 µM in each case.
Turning to `CC(=O)Oc1ccccc1SCCCOc1ccccc1`, the IC50 in test [1] and in test [2] was greater than 1000 µM in each case.
Regarding `CCCCCCCCSc1ccccc1OC(C)=O`, the IC50 in test [1] and in test [2] was greater than 40 µM throughout.
